Assay results: patent publication US20030134859A1 (SANKYO COMPANY, LIMITED, priority 2000, published 2003)
Structures can show the parent of a compound that is named as a salt.

Tests used:
[1] = tested on: Mouse preadipocyte strain 3T3-L1; assay: Inhibition of differentiation as an indication of acetic acid uptake; format: cell-based; conditions: Mus musculus, 3T3-L1, 0.1 μM test substance, control (0.01% dimethylsulfoxide) = 100%, read-out: Rate of Uptake (%) of [2-14C] acetic acid
Description: As the basal medium, Dulbecco's modified Eagle's (DEM) medium (NISSUI PHARMACEUTICAL CO., LTD) was used. […] All culturing in the present Test Example was carried out in a CO2 incubator at 37° C. and 10% CO2 concentration.
The successively cultured 3T3-L1 cells were inoculated in a Biocoat Collagen I 96-well white/clear plate (Becton Dickinson and Co.) at a concentration of 4,900 cells/well, and were cultured in the basal medium containing added 10% (v/v) inactivated bovine fetal serum (FBS) for 10 days.
The medium was replaced with a differentiation-inducing medium in which inactivated FBS (final concentration: 5%), insulin (Sigma-Aldrich Japan K. K., final concentration: 10 μg/mL), isobutyl methyl xanthine (Aldrich K. K., final concentration: 0.5 mM) and dexamethazone (final concentration: 1 μM) were added so as to be at the final concentrations indicated in the parentheses. The cells were divided in the following 2 groups and were cultured for 4 days; 1) in the presence of 0.01% (v/v) dimethylsulfoxide, and 2) in the presence of 0.01% (v/v) dimethylsulfoxide in which was dissolved 1 mM of the test substance (final concentration of 0.1 μM). Then, the medium was further replaced with a maintenance medium in which inactivated […] and insulin were added to the base medium so as to be at final concentrations of 5% and 100 ng/mL, respectively, and the cells were cultured for 2 days.
The inhibitory activity of the test compound against cell differentiation was assayed by using uptake of [2-^14C] acetic acid into the cultured cells as an indicator. […] Then the cells were further incubated with the newly prepared medium for 1 hr. After washing the well with PBS (−), the cells were dried. To these wells, 100 μL/well of a scintillation cocktail (Hewlett-Packard Co., MICROSCINT-20 PACKARD) were added and their radioactivities were determined with a Packard TopCont microplate Scintillation Counter (Hewlett-Packard Co., PACKARD) and the uptake level of [2-^14C] acetic acid into the cultured cell was calculated.
On the basis of the calculated uptake level of [2-^14C] acetic acid into the cultured cells, the relative uptake level of [2-^14C] acetic acid in the group treated with the test compound was calculated against the uptake level of [2-^14C] acetic acid in the presence of 0.01% (v/v) dimethylsulfoxide solution described in 1) (100%).
Value=Uptake Level (cpm) of [2-^14C] Acetic Acid in the Presence of the Test Substance
Control=Uptake Level (cpm) of [2-^14C] Acetic Acid in the Control Group (0.01% dimethylsulfoxide)
Uptake Rate (%) of [2-^14C] Acetic Acid=100×[Value]/[Control]

[2] = tested on: Rat white adipocytes; assay: Stimulation of differentiation of the adipocytes (Oil Red O); format: cell-based; conditions: 100 nM test compound, 5 days, Oil Red O ABS550, control = 100%, blank = 0%, Table 7; for activity at 0.1 µM: Rattus norvegicus, Adipocyte, 120 h, read-out: Rate of Differentiation (%)
Description: Rat white adipocytes contained in the white adipocyte culture kit, which was purchased from HOKUDO, were used. Mediums for proliferation and for differentiation-inducing, which were contained in the white adipocyte culture kit purchased from HOKUDO, were used.
Immediately after arrival of the purchased cells, all medium for transportation was discarded and replaced with 5 ml of proliferation medium (/25 cm^2-flask) and the cells were cultured for one day. Then, a cell suspension was prepared with proliferation medium so as to be 83,000 cells/mL, and the suspension was plated into a type I 96-well collagen-coated microplate (SUMITOMO BAKELITE CO., ltd.) so as to be 5,000 cells/well (60 μL/well). For the blank, the proliferation medium without the cells was plated into the well (blank well) of each plate.
Further, 1) in the group treated with the test compound, 3 μL/well of a solution in which the test compound (100 μM) was dissolved in DMSO solution and diluted with differentiation-inducing medium by 20 times (final concentration of the test compound: 100 nM, final concentration of DMSO: 0.1% (v/v)) were added to the well where the cells were plated. 2) In the control group, 3 μL/well of DMSO solution that was diluted with differentiation-inducing medium by 20 times (final concentration of DMSO: 0.1% (v/v)) were added to the well where the cells were plated. Further, 3) in the blank group, 3 μL/well of DMSO solution that was diluted with differentiation-inducing medium by 20 times (final concentration: 0.1% (v/v)) were added to the blank well.
After culturing for 5 days, all differentiation-inducing medium was discarded and replaced with 60 μL of 10% (v/v) of formaldehyde solution (for fixation) in each well and the cells were kept stationary for 20 min at room temperature. After this the fixative solution was discarded and replaced with 60 μL of 0.2% (v/v) Triton X (Sigma-Aldrich Japan K. K.) solution in each well and kept stationary for 5 min at the room temperature. Then all Triton X solution was discarded and replaced with 60 μL of 60% (v/v) isopropanol solution containing dissolved Oil Red 0 (Sigma-Aldrich Japan K. K.) so as to be 0.3%, which was adipose tissue staining solution, and the well was left stationary for 10 min at room temperature. After the adipose tissue staining solution was discarded, the well was washed twice with 60 μL of 60% (v/v) isopropanol solution. Then, 100 μL of the DMSO were added to each well and stirred for 5 min at room temperature. The absorbance was measured at 550 nm (ABS550) with a multi-plate reader (LabsSystems), and the stained amount by Oil Red 0 was determined. The measured level at ABS550 in the control group was defined as 100%, while the level at ABS550 in the blank group was defined as 0%. The differentiation rate (%) of the adipocytes treated with the test compound was calculated.

[3] = tested on: leptin production; assay: Enhancing activity for leptin production in adipocytes (ELISA); format: cell-based, rat; conditions: leptin concentration as % of control group; for Facilitating activity to produce leptin: 24 hr
Method in brief: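 Collagenase-dispersed epididymal adipocytes from 6-week-old male Wistar Imamichi rats, cultured in DMEM/F-12 (1:1) with test compound at final 1 µM, 100 nM, 10 nM or 1 nM (0.1% DMSO) for 24 h at 37 °C, 5% CO2. Leptin in filtrate measured by ELISA; activity = treated/DMSO-control leptin × 100 (%).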

[4] = Rattus norvegicus, Adipocyte, 24 h, read-out: Facilitating activity to produce leptin
[5] = Rattus norvegicus, Adipocyte, 24 h, 100 nm, read-out: Facilitating activity to produce leptin

Structure (SMILES)	activity at 0.1 µM [2]	other results
N#Cc1ccccc1NC(=O)c1cc([N+](=O)[O-])ccc1Cl [Example 22, N-(2-Cyanophenyl)-(2-chloro-5-nitrophenyl)carboxamide]	127%	activity at 0.1 µM [1]: 51.5%
CCNc1ccc(NC(=O)c2cc([N+](=O)[O-])ccc2Cl)cc1 [Example 115, N-(4-Ethylaminophenyl)-(2-chloro-5-nitrophenyl)carboxamide mono-hydrochloride]	147%	–
CCN(CC)c1ccc(NC(=O)c2cc([N+](=O)[O-])ccc2Cl)c(C)c1 [Example 131, N-[4-(Diethylamino)-2-methylphenyl]-(2-chloro-5-nitrophenyl)carboxamide]	132%	–
O=C(Nc1ccc(N2CCNCC2)cc1)c1cc([N+](=O)[O-])ccc1Cl [Example 133, N-[4-(Piperazin-1-yl)phenyl]-(2-chloro-5-nitrophenyl)carboxamide]	141%	–
CCCCCCNc1ccc(NC(=O)c2cc([N+](=O)[O-])ccc2Cl)cc1 [Example 137, N-(4-n-Hexylaminophenyl)-(2-chloro-5-nitrophenyl)carboxamide]	150%	–
CC(C)(C)c1cc(C(=O)Nc2cccc(NC(=O)c3cc([N+](=O)[O-])ccc3Cl)c2)cc(C(C)(C)C)c1O [Example 162, N-[3-[(3,5-di-tert-Butyl-4-hydroxybenzoyl)amino]phenyl]-(2-chloro-5-nitrophenyl)carboxamide]	170%	activity at 1 µM [3, 4]: 111%
CC(C)(C)OC(=O)N1CCN(C(=O)c2ccc(NC(=O)c3cc([N+](=O)[O-])ccc3Cl)cc2)CC1 [Example 166, N-[4-(4-tert-Butoxycarbonylpiperazin-1-ylcarbonyl)phenyl]-(2-chloro-5-nitrophenyl)carboxamide]	115%	activity at 1 µM [3, 4]: 114%; activity at 0.1 µM [3, 5]: 115%
CCOC(=O)Cc1ccc(NC(=O)c2cc([N+](=O)[O-])ccc2Cl)cc1 [Example 168, Ethyl [4-(2-chloro-5-nitrobenzoylamino)phenyl]acetate]	140%	–
Cl.NCCc1ccc(NC(=O)c2cc([N+](=O)[O-])ccc2Cl)cc1 [Example 169, N-[4-(2-Aminoethyl)phenyl]-(2-chloro-5-nitrophenyl)carboxamide Hydrochloride 0.2 Hydrate]	–	Facilitating activity to produce leptin ([3]; 100 nm): 111.6%; Rate of Differentiation (%) [2]: 114.9%
O=C(O)Cc1ccc(NC(=O)c2cc([N+](=O)[O-])ccc2Cl)cc1 [Example 170, [4-(2-Chloro-5-nitrobenzoylamino)phenyl]acetic Acid]	115%	activity at 0.1 µM [3, 5]: 117%
CCN(CC)c1ccc(NC(=O)c2cc([N+](=O)[O-])ccc2Cl)cc1 [Example 172, N-(4-Diethylaminophenyl)-(2-chloro-5-nitrophenyl)carboxamide]	120%	–
CN(C)c1ccc(NC(=O)c2cc([N+](=O)[O-])ccc2Cl)cc1 [Example 173, N-(4-Dimethylaminophenyl)-(2-chloro-5-nitrophenyl)carboxamide]	134%	activity at 1 µM [3, 4]: 119%; activity at 0.001 µM ([3]; Rattus norvegicus, Adipocyte, 24 h, 1 nm, read-out: Facilitating activity to produce leptin): 112%
CC(=O)N1CCN(c2ccc(NC(=O)c3cc([N+](=O)[O-])ccc3Cl)cc2)CC1 [Example 183, N-[4-(4-Acetylpiperazin-1-yl)phenyl]-(2-chloro-5-nitrophenyl)carboxamide]	118%	activity at 0.1 µM [3, 5]: 112%
O=C(Nc1ccc(S(=O)(=O)Nc2ccc(-n3ccnc3)cc2)cc1)c1cc([N+](=O)[O-])ccc1Cl [Example 187, N-[[4-[4-(Imidazol-1-yl)phenyl]aminosulfonyl]phenyl]-(2-chloro-5-nitrophenyl)carboxamide]	–	Facilitating activity to produce leptin ([3]; 10 nm): 113.3%; Facilitating activity to produce leptin ([3]; 100 nm): 126.2%; Rate of Differentiation (%) [2]: 112.7%
Nc1ccc2nc(NC(=O)c3cc([N+](=O)[O-])ccc3Cl)sc2c1 [Example 261, N-(6-Aminobenzothiazol-2-yl]-(2-chloro-5-nitrophenyl)carboxamide]	129%	–
CS(=O)(=O)Nc1ccc(-c2csc(NC(=O)c3cc([N+](=O)[O-])ccc3Cl)n2)cc1 [Example 262, N-[4-(4-Methanesulfonylaminophenyl)thiazol-2-yl]-(2-chloro-5-nitrophenyl)carboxamide]	167%	–
CC(=O)Nc1ccc(-c2csc(NC(=O)c3cc([N+](=O)[O-])ccc3Cl)n2)cc1 [Example 263, N-[4-(4-Acetylaminophenyl)thiazol-2-yl]-(2-chloro-5—nitrophenyl)carboxamide]	154%	–
NC(=O)N1CCN(c2ccc(NC(=O)c3cc([N+](=O)[O-])ccc3Cl)cc2)CC1 [Example 264, N-[4-[(4-Aminocarbonyl)piperazin-1-yl]phenyl]-(2-chloro-5-nitrophenyl)carboxamide]	–	Rate of Differentiation (%) [2]: 111.5%
CC(=O)Nc1cccc(-c2csc(NC(=O)c3cc([N+](=O)[O-])ccc3Cl)n2)c1 [Example 277, N-[4-(3-Acetylaminophenyl)thiazol-2-yl]-(2-chloro-5-nitrophenyl)carboxamide]	123%	–
CC(=O)Nc1ccc2nc(NC(=O)c3cc([N+](=O)[O-])ccc3Cl)sc2c1 [Example 280, N-(6-Acetylaminobenzothiazol-2-yl)-(2-chloro-5-nitrophenyl)carboxamide]	190%	–
NC(=O)Nc1ccc2nc(NC(=O)c3cc([N+](=O)[O-])ccc3Cl)sc2c1 [Example 281, N-(6-Aminocarbonylaminobenzothiazol-2-yl)-(2-chloro-5-nitrophenyl)carboxamide]	200%	–
